According to the supplement of paper PMC10307832:

Key:
Test in all cases: relative viability (nuclei count vs DMSO), 5 days (fraction); higher = more cells survive
CAL-12T = tested on: CAL-12T
Summary of the method: (§1)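 Lung cancer cell lines in 1536-well plates got either a single drug or a fixed anchor-drug dose together with five library-drug doses (not always all listed) in √10 steps, by pin tool, on the day after seeding. Nuclei were counted after 5 days, and relative viability is the treated-to-vehicle ratio of nuclei counts. Values are medians of duplicate plates.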

NCI-H1666 = tested on: NCI-H1666
Summary of the method: as §1

NCI-H1975 = tested on: NCI-H1975
Summary of the method: as §1

NCI-H1755 = tested on: NCI-H1755
Summary of the method: as §1

NCI-H441 = tested on: NCI-H441
Summary of the method: as §1

ChaGo-K-1 = tested on: ChaGo-K-1
Summary of the method: as §1

HCC-15 = tested on: HCC-15
Summary of the method: as §1

COR-L 105 = tested on: COR-L 105
Summary of the method: as §1

NCI-H2085 = tested on: NCI-H2085
Summary of the method: as §1

NCI-H2126 = tested on: NCI-H2126
Summary of the method: as §1

NCI-H3122 = tested on: NCI-H3122
Summary of the method: as §1

NCI-H322M = tested on: NCI-H322M
Summary of the method: as §1

HCC-78 = tested on: HCC-78
Summary of the method: as §1

NCI-H1993 = tested on: NCI-H1993
Summary of the method: as §1

EPLC-272H = tested on: EPLC-272H
Summary of the method: as §1

HOP-62 = tested on: HOP-62
Summary of the method: as §1

LXF-289 = tested on: LXF-289
Summary of the method: as §1

NCI-H1915 = tested on: NCI-H1915
Summary of the method: as §1

UMC-11 = tested on: UMC-11
Summary of the method: as §1

EMC-BAC-2 = tested on: EMC-BAC-2
Summary of the method: as §1

NCI-H2023 = tested on: NCI-H2023
Summary of the method: as §1

NC(=O)Nc1cc(-c2cccc(F)c2)sc1C(=O)N[C@H]1CCCNC1 [AZD7762] + CC1(C)CCC(c2ccc(Cl)cc2)=C(CN2CCN(c3ccc(C(=O)NS(=O)(=O)c4ccc(N[C@H](CCN5CCOCC5)CSc5ccccc5)c(S(=O)(=O)C(F)(F)F)c4)cc3)CC2)C1 [Navitoclax] (partner 0.5 µM)
relative viability (CAL-12T; first compound 0.01 µM): 1.23 | relative viability (CAL-12T; first compound 0.03162 µM): 1.18 | relative viability (CAL-12T; first compound 0.1 µM): 1.24 | relative viability (CAL-12T; first compound 0.3162 µM): 1.09 | relative viability (CAL-12T; first compound 1 µM): 0.169 | relative viability (NCI-H1666; first compound 0.01 µM): 1.24 | relative viability (NCI-H1666; first compound 0.03162 µM): 1.36 | relative viability (NCI-H1666; first compound 0.1 µM): 1.23 | relative viability (NCI-H1666; first compound 0.3162 µM): 0.797 | relative viability (NCI-H1666; first compound 1 µM): 0.661 | relative viability (NCI-H1975; first compound 0.01 µM): 1.03 | relative viability (NCI-H1975; first compound 0.03162 µM): 0.953 | relative viability (NCI-H1975; first compound 0.1 µM): 1.11 | relative viability (NCI-H1975; first compound 0.3162 µM): 0.938 | relative viability (NCI-H1975; first compound 1 µM): 0.676 | relative viability (NCI-H1755; first compound 0.01 µM): 1.03 | relative viability (NCI-H1755; first compound 0.03162 µM): 1.01 | relative viability (NCI-H1755; first compound 0.1 µM): 1.08 | relative viability (NCI-H1755; first compound 0.3162 µM): 1.08 | relative viability (NCI-H1755; first compound 1 µM): 0.622 | relative viability (NCI-H441; first compound 0.01 µM): 0.803 | relative viability (NCI-H441; first compound 0.03162 µM): 0.684 | relative viability (NCI-H441; first compound 0.1 µM): 0.721 | relative viability (NCI-H441; first compound 0.3162 µM): 0.479 | relative viability (NCI-H441; first compound 1 µM): 1.1 | relative viability (ChaGo-K-1; first compound 0.01 µM): 0.934 | relative viability (ChaGo-K-1; first compound 0.03162 µM): 1 | relative viability (ChaGo-K-1; first compound 0.1 µM): 0.913 | relative viability (ChaGo-K-1; first compound 0.3162 µM): 0.813 | relative viability (ChaGo-K-1; first compound 1 µM): 0.664 | relative viability (HCC-15; first compound 0.01 µM): 0.663 | relative viability (HCC-15; first compound 0.03162 µM): 0.708 | relative viability (HCC-15; first compound 0.1 µM): 0.771 | relative viability (HCC-15; first compound 0.3162 µM): 0.728 | relative viability (HCC-15; first compound 1 µM): 0.789 | relative viability (COR-L 105; first compound 0.01 µM): 0.694 | relative viability (COR-L 105; first compound 0.03162 µM): 0.768 | relative viability (COR-L 105; first compound 0.1 µM): 0.671 | relative viability (COR-L 105; first compound 0.3162 µM): 0.527 | relative viability (COR-L 105; first compound 1 µM): 0.463 | relative viability (NCI-H2085; first compound 0.01 µM): 1.27 | relative viability (NCI-H2085; first compound 0.03162 µM): 1.11 | relative viability (NCI-H2085; first compound 0.1 µM): 1.24 | relative viability (NCI-H2085; first compound 0.3162 µM): 1.25 | relative viability (NCI-H2085; first compound 1 µM): 1.03 | relative viability (NCI-H2126; first compound 0.01 µM): 0.811 | relative viability (NCI-H2126; first compound 0.03162 µM): 0.866 | relative viability (NCI-H2126; first compound 0.1 µM): 0.889 | relative viability (NCI-H2126; first compound 0.3162 µM): 0.79 | relative viability (NCI-H2126; first compound 1 µM): 0.91 | relative viability (NCI-H3122; first compound 0.01 µM): 0.97 | relative viability (NCI-H3122; first compound 0.03162 µM): 1.03 | relative viability (NCI-H3122; first compound 0.1 µM): 1.01 | relative viability (NCI-H3122; first compound 0.3162 µM): 0.995 | relative viability (NCI-H3122; first compound 1 µM): 1.05 | relative viability (NCI-H322M; first compound 0.01 µM): 1.14 | relative viability (NCI-H322M; first compound 0.03162 µM): 1.33 | relative viability (NCI-H322M; first compound 0.1 µM): 1.29 | relative viability (NCI-H322M; first compound 0.3162 µM): 1.22 | relative viability (NCI-H322M; first compound 1 µM): 1.03 | relative viability (HCC-78; first compound 0.01 µM): 0.822 | relative viability (HCC-78; first compound 0.03162 µM): 0.807 | relative viability (HCC-78; first compound 0.1 µM): 0.792 | relative viability (HCC-78; first compound 0.3162 µM): 0.714 | relative viability (HCC-78; first compound 1 µM): 0.401 | relative viability (NCI-H1993; first compound 0.01 µM): 0.943 | relative viability (NCI-H1993; first compound 0.03162 µM): 1.04 | relative viability (NCI-H1993; first compound 0.1 µM): 0.846 | relative viability (NCI-H1993; first compound 0.3162 µM): 0.983 | relative viability (NCI-H1993; first compound 1 µM): 0.823 | relative viability (EPLC-272H; first compound 0.01 µM): 1.17 | relative viability (EPLC-272H; first compound 0.03162 µM): 1.18 | relative viability (EPLC-272H; first compound 0.1 µM): 1.15 | relative viability (EPLC-272H; first compound 0.3162 µM): 1.37 | relative viability (EPLC-272H; first compound 1 µM): 0.783 | relative viability (HOP-62; first compound 0.01 µM): 1.2 | relative viability (HOP-62; first compound 0.03162 µM): 1.03 | relative viability (HOP-62; first compound 0.1 µM): 1.19 | relative viability (HOP-62; first compound 0.3162 µM): 1.16 | relative viability (HOP-62; first compound 1 µM): 0.969 | relative viability (LXF-289; first compound 0.01 µM): 0.943 | relative viability (LXF-289; first compound 0.03162 µM): 0.962 | relative viability (LXF-289; first compound 0.1 µM): 0.949 | relative viability (LXF-289; first compound 0.3162 µM): 1 | relative viability (LXF-289; first compound 1 µM): 1.03 | relative viability (NCI-H1915; first compound 0.01 µM): 0.783 | relative viability (NCI-H1915; first compound 0.03162 µM): 0.78 | relative viability (NCI-H1915; first compound 0.1 µM): 0.784 | relative viability (NCI-H1915; first compound 0.3162 µM): 0.806 | relative viability (NCI-H1915; first compound 1 µM): 0.672 | relative viability (UMC-11; first compound 0.01 µM): 0.312 | relative viability (UMC-11; first compound 0.03162 µM): 0.32 | relative viability (UMC-11; first compound 0.1 µM): 0.272 | relative viability (UMC-11; first compound 0.3162 µM): 0.307 | relative viability (UMC-11; first compound 1 µM): 0.21 | relative viability (EMC-BAC-2; first compound 0.01 µM): 1.22 | relative viability (EMC-BAC-2; first compound 0.03162 µM): 1.11 | relative viability (EMC-BAC-2; first compound 0.1 µM): 1.16 | relative viability (EMC-BAC-2; first compound 0.3162 µM): 1.18 | relative viability (EMC-BAC-2; first compound 1 µM): 1.18 | relative viability (NCI-H2023; first compound 0.01 µM): 0.992 | relative viability (NCI-H2023; first compound 0.03162 µM): 0.771 | relative viability (NCI-H2023; first compound 0.1 µM): 0.663 | relative viability (NCI-H2023; first compound 0.3162 µM): 0.287 | relative viability (NCI-H2023; first compound 1 µM): 0.118
